Experimental data published in patent publication US20250034216A1, “STEREOSELECTIVE COVALENT LIGANDS FOR ONCOGENIC AND IMMUNOLOGICAL PROTEINS” (The Scripps Research Institute, priority 2021, published 2025).

Experiments:
[1] = target: T1, LMNA_C570 (Homo sapiens, UniProt P02545); assay: IA-DTB cysteine engagement; assay type: binding; details: 22Rv1 cells, 20 μM probe, 1 h, relative to DMSO
T1 construct: endogenous in cells; host or cells: 22Rv1
T1 sequence (P02545 1-664): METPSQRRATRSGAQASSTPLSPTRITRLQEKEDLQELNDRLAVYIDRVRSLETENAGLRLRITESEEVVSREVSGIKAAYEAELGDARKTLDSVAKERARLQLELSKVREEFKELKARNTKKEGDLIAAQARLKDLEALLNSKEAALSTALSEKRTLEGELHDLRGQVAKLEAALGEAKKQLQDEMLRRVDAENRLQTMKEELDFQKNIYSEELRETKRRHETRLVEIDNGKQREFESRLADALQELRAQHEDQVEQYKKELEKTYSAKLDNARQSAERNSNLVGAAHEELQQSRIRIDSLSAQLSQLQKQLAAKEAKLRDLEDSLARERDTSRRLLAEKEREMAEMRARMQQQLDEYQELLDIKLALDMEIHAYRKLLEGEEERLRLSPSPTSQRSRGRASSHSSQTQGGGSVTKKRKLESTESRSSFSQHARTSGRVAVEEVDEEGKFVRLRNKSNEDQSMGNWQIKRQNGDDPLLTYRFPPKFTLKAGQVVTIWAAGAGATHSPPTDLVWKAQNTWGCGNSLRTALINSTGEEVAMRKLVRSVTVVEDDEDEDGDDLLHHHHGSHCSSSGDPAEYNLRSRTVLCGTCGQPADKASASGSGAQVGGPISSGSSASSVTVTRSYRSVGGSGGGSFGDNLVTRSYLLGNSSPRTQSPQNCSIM
Summary of the method: (§1)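 Competitive chemoproteomics: residual cysteine reactivity toward IA-DTB in lysates from probe-treated cells was quantified by TMT reporter ions relative to DMSO-treated controls. Replicates sharing cell line, probe, concentration and duration were averaged.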

[2] = target: T2, NT5DC1_C119 (Homo sapiens, UniProt Q5TFE4); assay: IA-DTB cysteine engagement; assay type: binding; details: 22Rv1 cells, 20 μM probe, 1 h, relative to DMSO
T2 construct: endogenous in cells; host or cells: 22Rv1
T2 sequence (Q5TFE4 1-455): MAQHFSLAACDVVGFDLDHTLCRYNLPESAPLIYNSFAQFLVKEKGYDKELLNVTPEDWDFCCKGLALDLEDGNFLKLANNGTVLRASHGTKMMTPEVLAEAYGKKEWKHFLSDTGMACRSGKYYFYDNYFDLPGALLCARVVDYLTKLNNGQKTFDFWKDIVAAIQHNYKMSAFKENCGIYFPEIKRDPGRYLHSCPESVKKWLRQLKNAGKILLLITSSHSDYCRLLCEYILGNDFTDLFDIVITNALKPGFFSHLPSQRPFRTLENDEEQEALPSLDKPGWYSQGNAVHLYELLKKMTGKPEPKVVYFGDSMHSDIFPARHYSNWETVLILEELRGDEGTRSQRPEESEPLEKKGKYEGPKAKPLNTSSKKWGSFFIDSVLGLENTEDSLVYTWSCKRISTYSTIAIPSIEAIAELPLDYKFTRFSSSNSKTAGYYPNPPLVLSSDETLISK
Summary of the method: as §1

Row | Structure (SMILES) | % engagement LMNA_C570 [1] | % engagement NT5DC1_C119 [2]
1 | C=CC(=O)N1C[C@@H](c2ccc(Br)cc2)[C@H]1C(=O)Nc1cccc2cccnc12 [MY-1A, (2S,3R)-1-acryloyl-3-(4-bromophenyl)-N-(quinolin-8-yl)azetidine-2-carboxamide] | 75% | 49%
2 | C=CC(=O)N1C[C@H](c2ccc(Br)cc2)[C@@H]1C(=O)Nc1cccc2cccnc12 [MY-1B, (2R,3S)-1-acryloyl-3-(4-bromophenyl)-N-(quinolin-8-yl)azetidine-2-carboxamide] | 70.5% | 63.25%
3 | C=CC(=O)N1C[C@H](c2ccc(Br)cc2)[C@H]1C(=O)Nc1cccc2cccnc12 [MY-3A, (2S,3S)-1-acryloyl-3-(4-bromophenyl)-N-(quinolin-8-yl)azetidine-2-carboxamide] | 75.5% | 93.5%
4 | C=CC(=O)N1C[C@H](c2ccc(Br)cc2)[C@H]1C(=O)Nc1cccc2cccnc12 [MY-3B, (2S,3S)-1-acryloyl-3-(4-bromophenyl)-N-(quinolin-8-yl)azetidine-2-carboxamide] | 70.5% | 79.5%
